Laboratory results: paper PMC10731658 (Chemical Research in Toxicology, 2023)
Like-named read-outs stand apart in the source and are kept apart here.

What was measured:
HepG2 cells [1] = details: read-out: IC50 (cytotoxicity in HepG2 cells); conventional oximes; cited from earlier work
HepG2 cells [2] = test: Intracellular RONS detection with DCFH-DA fluorescent probe; assay type: cell-based, human; details: IC50 concentration
Experimental: (§1) Two different fluorescent dyes, i.e., 2,7-dichlorodihydrofluorescein diacetate (DCFH-DA, Cayman Chemicals Company, Ann Arbor, MI) and dihydroethidium (DHE, Sigma-Aldrich, St. Louis, MO) were utilized for the determination of intracellular levels of RONS after 1, 4, and 24 h of incubation with tested oxime reactivators or TBHP (positive control). Cells incubated with oxime-free DMEM represented untreated control. After the incubation, the experimental medium was removed and replaced with a solution of DCFH-DA or DHE at concentrations of 20 and 5 μmol/L, respectively. The cells were subsequently incubated at 37 °C in a CO2 incubator for 45 min. Afterward, the fluorescence intensity of each well was measured using a Spark multimode microplate reader at an excitation wavelength of 485 nm for DCFH-DA or 528 nm for the DHE probe and an emission wavelength of 535 or 590 nm, respectively. Each experiment was carried out in triplicate and repeated three independent times.
(§2) The toxicological indices IC50 were calculated from control-subtracted triplicates using nonlinear regression (four parameters) using GraphPad Prism 9 software version 9.3.0 (GraphPad Software Inc., San Diego, CA). One-way analysis of variance (ANOVA) followed by Dunnetʼs multiple comparison test was used for RONS, MDA, NP-SH, and NP-SS-NP statistical analysis by GraphPad Prism 9 software, version 9.3.0. Data are expressed as means ± standard deviation (SD) of three independent measurements (n = 3). Significant differences between oxime-treated and untreated control groups (p ≤ 0.05) were marked by an asterisk (*).

HepG2 cells [3] = test: Intracellular RONS detection with DHE fluorescent probe; assay type: cell-based, human; details: IC50 concentration; for increase of free radicals/RONS (DHE probe) vs negative control: 1 h incubation
Experimental: as §1, §2

HepG2 cells [4] = test: Total intracellular MDA by LC-MS/MS; assay type: cell-based, human; details: IC50 concentration
HepG2 cells [5] = test: Intracellular nonprotein thiols (NP-SH) by HPLC-UV; assay type: cell-based, human; details: IC50 concentration
Experimental: (§3) The culture medium was removed from a 25 cm^2 culture flask on the day of the experiment, and cells were washed twice with 3 mL of phosphate-buffered saline (PBS; GE Healthcare Life Sciences, South Logan, UT). Subsequently, 3 mL of a plain DMEM medium (negative control) and a DMEM medium containing TBHP (positive control) or individual oximes were added to each flask, and cells were incubated for 1, 4, and 24 h. The concentration of individual oxime and TBHP in the DMEM medium corresponded to the IC50 value. After incubation, the experimental medium was removed, and cells were washed with 3 mL of PBS and harvested by scraping. The resulting suspension was centrifuged at 220g and 21 °C for 5 min (Universal 320R centrifuge, Hettich, Tuttlingen, Germany). The supernatant was removed and dried cell pellets were stored at −80 °C. Each experiment was carried out in three independent replicates.
(§4) The cell pellets were thawed at room temperature, resuspended in 500 μL of ultrapure water (Millipore Purification System, Merck, Millipore, Darmstadt, Germany), and sonicated for 2 min (2 s cycle, amplitude 20%) in a Q500 homogenizer (QSONICA Sonicators, Newton). Then, the homogenate was divided into three parts: 250 μL for the determination of malondialdehyde (MDA), 100 μL for each determination of nonprotein thiols (NP-SH) and disulfides (NP-SS-NP), and 10 μL for the Bradford protein assay.
(§5) The HepG2 cell homogenate obtained, as described in Section 2.6, was processed for the determination of intracellular NP-SH and NP-SS-NP, according to Muckova et al.[11] The samples were analyzed using the HPLC system described above equipped with an SPD 20-AV Prominence UV/vis detector. The analysis was carried out on a Phenomenex LUNA C18 column (150 mm × 3 mm, 3 μm, 100 Å) protected with a Security Cartridge (4 mm × 2 mm, Phenomenex, Torrance) at 30 °C and a constant flow rate of 0.330 mL/using the mobile phase consisting of 0.9% aqueous FA (A) and ACN (B) under gradient conditions: 0–1 min 12% B, 1.1–2 min 12–55% B, 2–7 min 55% B, 7.1 min 55% B, and 7.1–10 min 12% B. The detector was set at 326 nm and the sample injection volume was 20 μL.

HepG2 cells [6] = test: Intracellular nonprotein disulfides (NP-SS-NP) by HPLC-UV; assay type: cell-based, human; details: IC50 concentration
Experimental: as §3, §4, §5

HepG2 cells [7] = test: Flow cytometric detection of cell death (Annexin V & Dead Cell Assay); assay type: cell-based, human; details: IC50 concentration
From the text: 2. Flow cytometric detection of cell death
The microcapillary flow cytometry (Muse™ Cell Analyzer, Luminex, Austin, TX) was used to determine cell death.
This method is based on detecting externalization of phosphatidylserine on the surface of cells undergoing apoptosis.
The technique allows quantitative analysis of non-apoptotic, early apoptotic, late apoptotic, and necrotic cells. The reagent mixture also contains the membrane non-permeable dye 7-aminoactinomycin D. This component distinguishes necrotic and late apoptotic cells from the live and early apoptotic cells. The measurement of cell death was carried out according to manufacturer instructions after 1, 4, and 24 h incubation with tested oxime reactivators and with oxime-free medium as an untreated control. During the first day of the experiment, cells were seeded into a 24-well plate (TPP) with a density of […]. After the incubation, cells from each well were collected into the polystyrene tube (TPP) and centrifuged for 5 min at 1000 × g at room temperature. The supernatant was discarded. The cell suspensions […]
were prepared in fresh medium DMEM. Afterward 100 μL of cell suspension were mixed with the 100 μL of Muse™ Annexin V & Dead Cell Assay reagent, and the samples were incubated for 20 min at room temperature in the dark.
Per measurement, 5000 cells were analyzed. Each experiment was performed in triplicates and repeated three independent times. The concentration of K048, K074, K075, and K203 oximes and TBHP (positive control) used in […]
After 1 h of incubation (Figure S-1.) with tested oxime reactivators and TBHP as the positive control, the percentage […]
A significant change in the percentage of
The amount of early apoptotic cells
. On the other hand, the percentage of late apoptotic cells was […]
control cells. The count of late apoptotic cells enlarged by 7.74, 4.71 , 4.17, 4.13, and 3.20 %, respectively. The statistical differences were also found in the percentage of necrotic cells in this time interval. The highest increment […]
K048, K074, K075, and K203 groups when compared with control.
K075, and K203 treated groups, respectively, when compared with control. Finally, the percentage of necrotic cells […]
Fig. S-1 The percentage of intact (white column), early (light grey column), late apoptotic (dark grey column), and necrotic HepG2 cells (black column) determined using microcapillary flow cytometry after 1 h, 4 h and 24 h treatment with oxime acetylcholinesterase reactivators or TBHP (positive control). Control represents the cells incubated with an oxime-free culture medium. One-way analysis of variance (ANOVA) followed by Dunnetʼs multiple comparison test was used for statistical analysis by GraphPad Prism 9 software version 9.3.0. Data are expressed as means ± standard deviation (SD) of three independent measurements (n = 3). Significant differences between oxime-treated and untreated control groups (p ≤ 0.05) and marked by asterisk (*).
3. Stability of oximes in DMEM medium at 37 °C over 24 hours
The stability of oximes K048, K074, K075, and K203 in DMEM medium, with concentrations corresponding to their […]
UV, following the chromatographic conditions described by Vanova et al. (2021)13. The results over the tested time […]
Fig. S-2 Data are expressed in percentage as means ± standard deviation (SD) of three independent measurements […]

HepG2 cells [8] = details: from 15 min after simultaneous incubation with TBHP (IC50 concentration); oximes about 10-fold below IC50; cited from earlier work
rat plasma = details: in vivo, 23 mg/kg; cited from earlier work
HepG2 cells [9] = test: Colorimetric MTT cell viability assay, 24 h; details: read-out: IC50 (cytotoxicity, MTT assay), 24 h incubation
[10] = Colorimetric MTT cell viability assay, 24 h; details: human, HepG2 cells, IC50 (cytotoxicity, MTT assay), 24 h incubation

In the case of `NC(=O)c1cc[n+](COC[n+]2ccccc2/C=N/O)cc1` [HI-6, asoxime], the IC50 (HepG2 cells [1]) is listed as ~3000 µM.
In the case of `NC(=O)c1cc[n+](C/C=C/C[n+]2ccc(C=NO)cc2)cc1.[Br-].[Br-]` [K203, 4-carbamoyl-1-((2E)-4-(4-((hydroxyimino)methyl)pyridin-1-ium-1-yl)but-2-en-1-yl)pyridin-1-ium dibromide], the “increase of RONS (DCFH-DA probe) vs negative control” value (“increase of RONS (DCFH-DA probe)” for short) (HepG2 cells [2]; 1 h incubation) is reported as 39.2%, the “increase of RONS (DCFH-DA probe)” value (HepG2 cells [2]; 4 h incubation) is reported as 39.2% and the “increase of RONS (DCFH-DA probe)” value (HepG2 cells [2]; 24 h incubation) is reported as 22.8%. For the same molecule, the “increase of free radicals/RONS (DHE probe) vs negative control” value (HepG2 cells [3]) was 8.5%, the “increase of RONS (DHE probe) vs negative control” value (HepG2 cells [3]; 24 h incubation) was 22.1% and the “resulting MDA levels (in words)” value (HepG2 cells [4]; within the 24 h time frame) was “insignificant”. The “decrease in NP-SH levels vs untreated control” value (“decrease in NP-SH levels” below) (HepG2 cells [5]; 1 h) was 17.4%, the “decrease in NP-SH levels” value (HepG2 cells [5]; 24 h) was 12.1% and the “resulting NP-SS-NP levels (in words)” value (HepG2 cells [6]; within the 24 h time frame) was “insignificant”. The “decrease in percentage of intact (live) cells vs control” value (HepG2 cells [7]; 1 h) was ~8.43%, the “increase in early apoptotic cells vs control” value (HepG2 cells [7]; 1 h) was ~1.51% and the “increase in late apoptotic cells vs control” value (HepG2 cells [7]; 1 h) was 4.13%. The “decrease in percentage of live cells vs control” value (HepG2 cells [7]; 4 h) was 8.8%, the “increase in late apoptotic cells vs control” value (HepG2 cells [7]; 4 h) was 4.24% and the “increase in necrotic cell population vs control” value (HepG2 cells [7]; 4 h) was 1.74%. The “decrease in percentage of intact cells vs control” value (HepG2 cells [7]; 24 h) was 46.6%, the “increase in early apoptotic cells vs control” value (HepG2 cells [7]; 24 h) was 13.3% and the “increase in late apoptotic cells vs control” value (HepG2 cells [7]; 24 h) was 32.9%. The “reduction of ROS production” value (HepG2 cells [8]) was 98%, the “low-molecular-weight antioxidants (LMWAs) in plasma” value (rat plasma) was “increase” and the IC50 (HepG2 cells [9]) was 2050 µM.
For `O/N=C/c1cc[n+](COC[n+]2ccc(/C=N/O)cc2)cc1` [LüH-6, obidoxime], the IC50 (HepG2 cells [1]) is listed as ~4000 µM.
In the case of `O/N=C/c1cc[n+](C[n+]2ccc(/C=N/O)cc2)cc1` [MMB-4, methoxime], the IC50 (HepG2 cells [1]) is listed as ~1000 µM.
With `CC(C)(C)OO` [TBHP, tert-butyl hydroperoxide, reference compound] the “increase of RONS (DCFH-DA probe)” value (HepG2 cells [2]; 1 h incubation) was 16.7%, the “decrease of RONS (DCFH-DA probe) vs negative control” value (HepG2 cells [2]; 24 h incubation) was 47.6% and the “increase of free radicals/RONS (DHE probe) vs negative control” value (HepG2 cells [3]) was 30.7%. For the same molecule, the “increase of RONS (DHE probe) vs negative control” value (HepG2 cells [3]; 4 h incubation) was 111%, the “increase of MDA levels vs untreated control” value (HepG2 cells [4]; 4 h incubation) was 36.1% and the “increase of MDA levels vs untreated control” value (HepG2 cells [4]; 24 h exposure) was 96.6%. For the same molecule, the “decrease in NP-SH levels” value (HepG2 cells [5]; 1 h) was 24.6%, the “decrease in NP-SH levels” value (HepG2 cells [5]; 4 h) was 45.0% and the “decrease in NP-SH levels” value (HepG2 cells [5]; 24 h) was 53.1%. For the same molecule, the “increase in NP-SS-NP levels vs untreated control” value (from here on “increase in NP-SS-NP levels”) (HepG2 cells [6]; 1 h) was 69.6%, the “increase in NP-SS-NP levels” value (HepG2 cells [6]; 4 h) was 119% and the “increase in NP-SS-NP levels” value (HepG2 cells [6]; 24 h) was 166%. For the same molecule, the “decrease in percentage of intact (live) cells vs control” value (HepG2 cells [7]; 1 h) was ~11.6%, the “increase in late apoptotic cells vs control” value (HepG2 cells [7]; 1 h) was 7.74% and the “increase in necrotic cells vs control” value (HepG2 cells [7]; 1 h) was 3.24%. The “decrease in percentage of live cells vs control” value (HepG2 cells [7]; 4 h) was 14.6%, the “increase in early apoptotic cells vs control” value (HepG2 cells [7]; 4 h) was 1.02% and the “increase in late apoptotic cells vs control” value (HepG2 cells [7]; 4 h) was 9.79%. For the same molecule, the “increase in necrotic cell population vs control” value (HepG2 cells [7]; 4 h) was 3.77%, the “decrease in percentage of intact cells vs control” value (HepG2 cells [7]; 24 h) was 42.7% and the “increase in early apoptotic cells vs control” value (HepG2 cells [7]; 24 h) was 7.42%. For the same molecule, the “increase in late apoptotic cells vs control” value (HepG2 cells [7]; 24 h) was 31.6%, the “increase in necrotic cells vs control” value (HepG2 cells [7]; 24 h) was 3.66% and the IC50 at 24 h [10] was 130 µM.
In the case of `O/N=C/c1cc[n+](CCC[n+]2ccc(/C=N/O)cc2)cc1` [TMB-4, trimedoxime], the IC50 (HepG2 cells [1]) is listed as ~22000 µM.
In the case of `N[C@@H](CCC(=O)N[C@@H](CS)C(=O)NCC(=O)O)C(=O)O` [reduced glutathione, glutathione, reference compound], the “reduction of ROS production” value (HepG2 cells [8]) is listed as 87%.
